Laboratory results as given in US11097023B1, “Pre-filled syringe containing sugammadex” (Par Pharmaceutical, Inc., priority 2020, dated 2021).

How the values were obtained:
[1] = Thermal-forced degradation of sugammadex sodium (Example V); assay type: physicochemical; settings: solution in WFI, 60° C.
Description: To confirm that the impurities observed in Example III were at least in part a result of thermal degradation, sugammadex sodium as a solution in WFI was subjected to an elevated temperature of 60° C. for ten days. S-oxide diastereomer-1 impurity, s-oxide diastereomer-2 impurity, impurity at ˜1.12 RRT, mono chloro impurity, unknown impurities, and mono hydroxyl impurity concentrations were measured using HPLC technique as described in Example VII after the first, third, fifth, and tenth day.
(§1) For the following procedure, amber-colored glassware was used for all preparations. In addition, because sugammadex sodium is markedly hygroscopic when exposed to air at room temperature and when exposed to humidity, a relative humidity of less than 40% RH was maintained during weighing.
(§2) First, a buffer solution having a pH of 2.0 was prepared by weighing and transferring about 4.08 g of potassium dihydrogen phosphate (AR grade of equivalent) into 1000 mL water (HPLC Grade or Milli-Q) and mixing. The pH of the buffer solution was adjusted to 2.0±0.05 with concentrated ortho-phosphoric acid (HPLC grade or equivalent) and mixed well.
(§3) A mobile phase A was then prepared by transferring 950 mL of the buffer solution and 50 mL of methanol (HPLC grade or equivalent) into a bottle, mixing, and sonicating to degas. A mobile phase B was also prepared by transferring 300 mL of the buffer solution and 700 mL of acetonitrile (HPLC grade or equivalent) into a bottle, mixing, and sonicating to degas.
(§4) A standard solution (50 ppm) was also prepared by weighing and transferring 27.2 mg of sugammadex sodium standard into a 50 mL amber color volumetric flask. About 30 mL of 100% water (HPLC Grade or Milli-Q) was added, and the mixture was sonicated to dissolve. The solution was made up to the mark with 100% water (HPLC Grade or Milli-Q) and mixed well. Then, 5.0 mL of this solution was transferred to 50 mL amber color volumetric flasks, made up to the mark with 100% water (HPLC Grade or Milli-Q), and mixed well.
(§5) To prepare a sensitivity solution (5 ppm), 5.0 mL of the standard solution was transferred to a 50 mL amber volumetric flask, made-up to the mark with 100% water (HPLC Grade or Milli-Q), and mixed well.
(§6) A placebo solution was also prepared by weighing and transferring 1.0 g of placebo into a 20 mL amber color volumetric flask, diluting to 20 mL with 100% water (HPLC Grade or Milli-Q), and mixing well.
(§7) A sample solution (5000 ppm) was also prepared by weighing and transferring 1.0 g of the sample to be analyzed into a 20 mL amber color volumetric flask, diluting to 20 mL with 100% water (HPLC Grade or Milli-Q), and mixing well.
(§8) When performing the chromatographic procedure, for initial samples, two samples were prepared in duplicate. For stability samples, a single sample was prepared. In addition, any peak due to blank and/or placebo was disregarded, any peak below LOQ level was disregarded, and any peak corresponding to mono chloro impurity was disregarded.
(§9) The percent impurity was then calculated as follows:
(§10) [formula] where: A(Spl)=Peak response of impurity obtained from sample solution A(Std)=Average peak response of sugammadex from the standard solution Wt(Std)=Weight (mg) of sugammadex working standard. Wt(Spl)=Weight (g) of Sample LC=Label Claim (100 mg/ml sugammadex) D=Density of sample (mg/ml) P=Potency of the standard (Anhydrous basis+Solvent free) WC=Water content of sugammadex working standard. 2002.12=Molecular weight of sugammadex 2178.01=Molecular weight of sugammadex sodium
(§11) Total impurities were calculated by adding all known impurities (excluding mono hydroxy impurity) and all unknown impurities.

[2] = Oxidative-forced degradation of sugammadex sodium (Example VI); assay type: physicochemical
Description: To confirm that impurities observed in sugammadex sodium-containing solutions could be at least in part a result of oxidative degradation, sugammadex sodium as a solution in […] was subjected to an atmosphere of either 0.01% H2O2 for one hour or to an atmosphere of 0.002% H2O2 for five hours. S-oxide diastereomer-1 impurity, s-oxide diastereomer-2 impurity, impurity at ˜1.12 RRT, mono chloro impurity, unknown impurities, and mono hydroxyl impurity concentrations were measured using HPLC technique as described in Example VII after the first hour of 0.01% H2O2 exposure and after the first, fourth, and fifth hour of 0.002% H2O2 exposure.
as §1, §2, §3, §4, §5, §6, §7, §8, §9, §10, §11

O=C([O-])CCSC[C@H]1O[C@@H]2O[C@H]3[C@H](O)[C@@H](O)[C@@H](O[C@H]4[C@H](O)[C@@H](O)[C@@H](O[C@H]5[C@H](O)[C@@H](O)[C@@H](O[C@H]6[C@H](O)[C@@H](O)[C@@H](O[C@H]7[C@H](O)[C@@H](O)[C@@H](O[C@H]8[C@H](O)[C@@H](O)[C@@H](O[C@H]9[C@H](O)C(O)[C@@H](O[C@H]1[C@H](O)[C@H]2O)O[C@@H]9CSCCC(=O)[O-])O[C@@H]8CSCCC(=O)[O-])O[C@@H]7CSCCC(=O)[O-])O[C@@H]6CSCCC(=O)[O-])O[C@@H]5CSCCC(=O)[O-])O[C@@H]4CSCCC(=O)[O-])O[C@@H]3CSCCC(=O)[O-].[Na+].[Na+].[Na+].[Na+].[Na+].[Na+].[Na+].[Na+] (stereo partly drawn) [sugammadex sodium]
(Excluding Monohydroxy impurity) ([1]; after fifth day): 0.03 % impurity | Highest Unknown impurity ([1]; after fifth day): 7.18 % impurity | Impurity at ~1.12 RRT ([1]; after fifth day): 0.10 % impurity | Mono chloro impurity ([1]; after fifth day): 0.03 % impurity | Other total impurities ([1]; after fifth day): 0.80 % impurity | S-oxide diastereomer-1 impurity ([1]; after fifth day): 0.16 % impurity | S-oxide diastereomer-2 impurity ([1]; after fifth day): 0.21 % impurity | Total impurities ([1]; after fifth day): 8.48 % impurity | (Excluding Monohydroxy impurity) ([1]; after first day): 0.03 % impurity | Highest Unknown impurity ([1]; after first day): 4.44 % impurity | Impurity at ~1.12 RRT ([1]; after first day): 0.10 % impurity | Mono chloro impurity ([1]; after first day): 0.04 % impurity | Other total impurities ([1]; after first day): 0.71 % impurity | S-oxide diastereomer-1 impurity ([1]; after first day): 0.12 % impurity | S-oxide diastereomer-2 impurity ([1]; after first day): 0.17 % impurity | Total impurities ([1]; after first day): 5.58 % impurity | (Excluding Monohydroxy impurity) ([1]; after tenth day): 0.02 % impurity | Highest Unknown impurity ([1]; after tenth day): 15.04 % impurity | Impurity at ~1.12 RRT ([1]; after tenth day): 0.08 % impurity | Mono chloro impurity ([1]; after tenth day): 0.03 % impurity | Other total impurities ([1]; after tenth day): 0.85 % impurity | S-oxide diastereomer-1 impurity ([1]; after tenth day): 0.48 % impurity | S-oxide diastereomer-2 impurity ([1]; after tenth day): 0.42 % impurity | Total impurities ([1]; after tenth day): 16.91 % impurity | (Excluding Monohydroxy impurity) ([1]; after third day): 0.03 % impurity | Highest Unknown impurity ([1]; after third day): 5.34 % impurity | Impurity at ~1.12 RRT ([1]; after third day): 0.10 % impurity | Mono chloro impurity ([1]; after third day): 0.03 % impurity | Other total impurities ([1]; after third day): 0.79 % impurity | S-oxide diastereomer-1 impurity ([1]; after third day): 0.14 % impurity | S-oxide diastereomer-2 impurity ([1]; after third day): 0.20 % impurity | Total impurities ([1]; after third day): 6.59 % impurity | Impurities generated via thermal degradation ([1]; ten days): at least s-oxide diastereomer-1 impurity, s-oxide diastereomer-2 impurity, and unknown impurities are generated via thermal degradation | (Excluding Monohydroxy impurity) ([2]; 0.002% H2O2, after fifth hour): 0.03 % impurity | Highest Unknown impurity ([2]; 0.002% H2O2, after fifth hour): 0.07 % impurity | Impurity at ~1.12 RRT ([2]; 0.002% H2O2, after fifth hour): 0.09 % impurity | Mono chloro impurity ([2]; 0.002% H2O2, after fifth hour): 0.03 % impurity | Other total impurities ([2]; 0.002% H2O2, after fifth hour): 0.82 % impurity | S-oxide diastereomer-1 impurity ([2]; 0.002% H2O2, after fifth hour): 4.11 % impurity | S-oxide diastereomer-2 impurity ([2]; 0.002% H2O2, after fifth hour): 5.02 % impurity | Total impurities ([2]; 0.002% H2O2, after fifth hour): 10.14 % impurity | (Excluding Monohydroxy impurity) ([2]; 0.002% H2O2, after first hour): 0.03 % impurity | Highest Unknown impurity ([2]; 0.002% H2O2, after first hour): 0.07 % impurity | Impurity at ~1.12 RRT ([2]; 0.002% H2O2, after first hour): 0.10 % impurity | Mono chloro impurity ([2]; 0.002% H2O2, after first hour): 0.04 % impurity | Other total impurities ([2]; 0.002% H2O2, after first hour): 0.31 % impurity | S-oxide diastereomer-1 impurity ([2]; 0.002% H2O2, after first hour): 1.20 % impurity | S-oxide diastereomer-2 impurity ([2]; 0.002% H2O2, after first hour): 1.47 % impurity | Total impurities ([2]; 0.002% H2O2, after first hour): 3.20 % impurity | (Excluding Monohydroxy impurity) ([2]; 0.002% H2O2, after fourth hour): 0.02 % impurity | Highest Unknown impurity ([2]; 0.002% H2O2, after fourth hour): 0.07 % impurity | Impurity at ~1.12 RRT ([2]; 0.002% H2O2, after fourth hour): 0.09 % impurity | Mono chloro impurity ([2]; 0.002% H2O2, after fourth hour): 0.03 % impurity | Other total impurities ([2]; 0.002% H2O2, after fourth hour): 0.65 % impurity | S-oxide diastereomer-1 impurity ([2]; 0.002% H2O2, after fourth hour): 3.42 % impurity | S-oxide diastereomer-2 impurity ([2]; 0.002% H2O2, after fourth hour): 4.18 % impurity | Total impurities ([2]; 0.002% H2O2, after fourth hour): 8.45 % impurity | (Excluding Monohydroxy impurity) ([2]; 0.01% H2O2, after first hour): 0.02 % impurity | Highest Unknown impurity ([2]; 0.01% H2O2, after first hour): 3.07 % impurity | Impurity at ~1.12 RRT ([2]; 0.01% H2O2, after first hour): 0.08 % impurity | Mono chloro impurity ([2]; 0.01% H2O2, after first hour): 0.03 % impurity | Other total impurities ([2]; 0.01% H2O2, after first hour): 3.66 % impurity | S-oxide diastereomer-1 impurity ([2]; 0.01% H2O2, after first hour): 10.64 % impurity | S-oxide diastereomer-2 impurity ([2]; 0.01% H2O2, after first hour): 12.89 % impurity | Total impurities ([2]; 0.01% H2O2, after first hour): 30.36 % impurity | Impurities generated via oxidation ([2]; 0.01% H2O2 one hour or 0.002% H2O2 five hours): at least s-oxide diastereomer-1 impurity, s-oxide diastereomer-2 impurity, and unknown impurities are generated via oxidation
